Test results as given in patent publication US20140336130A1 (PHIGENIX, INC., priority 2011, published 2014).
Entries after “also recorded” stand apart in the source; their conditions may differ.

Legend:
Type in all cases: cell-based, human
PAX2 protein = assay: Western blot analysis of PAX2 protein; settings: DU145, Los 5 μM, U0126 25 μM, PD98059 20 μM, AICAR 250 μM, vs untreated control
Experimental: Briefly, cells were harvested by trypsinization and washed twice with PBS. Lysis buffer was prepared according to the manufacturer's instructions (Sigma), and was then added to the cells. Following a 15 minute incubation period at 4° C. on an orbital shaker, cell lysate were then collected and centrifuged for 10 minutes at 12000×g to pellet cellular debris. The protein-containing supernatant were then collected and quantitated. Next, 25 μg protein extract was loaded onto an 8-16% gradient SDS-PAGE (Novex). Following electrophoresis, proteins were transferred to PVDF membranes, and then blocked with 5% nonfat dry milk in TTBS (0.05% Tween 20 and 100 mM Tris-Cl) for 1 hour. Blots were then probed with rabbit anti-PAX2 primary antibody (Zymed, San Francisco, Calif.) at a 1:2000 dilution. After washing, the membranes were incubated with anti-rabbit antibody conjugated to horseradish peroxidase (HRP) (dilution 1:5000; Sigma), and signal detection was visualized using chemilluminescence reagents (Pierce) on an Alpha Innotech Fluorchem 8900. As a control, blots were stripped and reprobed with mouse anti-β-actin primary antibody (1:5000; Sigma-Aldrich) and HRP— conjugated anti-mouse secondary antibody (1:5000; Sigma-Aldrich) and signal detection was again visualized.
(§1) Western blot analysis was performed as described in Example 2. Blots were then probed with primary antibody (anti-PAX2, -phospho-PAX2, -JNK, -phospho-JNK, -ERK1/2, or -phospho-ERK1/2) (Zymed, San Francisco, Calif.) at 1:1000-2000 dilutions. After washing, the membranes were incubated with anti-rabbit antibody conjugated to horseradish peroxidase (HRP) (dilution 1:5000; Sigma), and signal detection was visualized using chemilluminescence reagents (Pierce) on an Alpha Innotech Fluorchem 8900. As a control, blots were stripped and re-probed with mouse anti-β-actin primary antibody (1:5000; Sigma-Aldrich) and HRP— conjugated anti-mouse secondary antibody (1:5000; Sigma-Aldrich), and signal detection was again visualized.\
Western blot analysis was performed as described in Example 2.

phospho-STAT3 = assay: Western blot of phospho-STAT3; settings: DU145; vs untreated control
Experimental: as §1, with “Blots were then probed with primary antibody (anti-PAX2, -phospho-PAX2, -JNK, -phospho-JNK, -ERK1/2, or -phospho-ERK1/2) (Zymed, San Francisco, Calif.) at 1:1000-2000 dilutions.” left out

phospho-PAX2 = assay: Western blot of phospho-PAX2; settings: DU145
Experimental: as §1, with “Blots were then probed with primary antibody (anti-PAX2, -phospho-PAX2, -JNK, -phospho-JNK, -ERK1/2, or -phospho-ERK1/2) (Zymed, San Francisco, Calif.) at 1:1000-2000 dilutions.” left out

ERK = assay: Western blot of ERK protein; settings: DU145; Los
Experimental: as §1

phospho-JNK = assay: Western blot of phospho-JNK; settings: DU145
Experimental: as §1, with “Blots were then probed with primary antibody (anti-PAX2, -phospho-PAX2, -JNK, -phospho-JNK, -ERK1/2, or -phospho-ERK1/2) (Zymed, San Francisco, Calif.) at 1:1000-2000 dilutions.” left out

DU145 = assay: Thymidine incorporation, DU145
Experimental: Proliferation of cells was determined by [3H] thymidine ribotide ([3H] TdR) incorporation into DNA. 0.5×10^6 cells/well of suspension DU145 cells were plated in their appropriate media. Cells were incubated for 72 h with or without the presence of AngII at the indicated concentrations. Cells were exposed to 37 kBq/ml [methyl-3H] thymidine in the same medium for 6 h. The adherent cells were fixed by 5% trichloroacetic acid and lysed in SDS/NaOH lysis buffer overnight. Radioactivity was measured by Beckman LS3801 liquid scintillation counter (Canada). Suspension cell cultures were harvested by cell harvester (Packard instrument Co., Meriden, Conn.), and radioactivity was measured by 1450 microbeta liquid scintillation counter (PerkinElmer Life Sciences).

phospho-ERK 1/2 = assay: Western blot of phospho-ERK1/2; settings: DU145, Los
Experimental: as §1

PAX2 expression = PAX2 expression after AngII or pathway blockers; settings: for PAX2 expression reduced by, compared to untreated control: Los 5 μM; for PAX2 expression, fold increase: PD123319 5 μM; for increase in PAX2 expression relative to untreated hPrEC cells: 10 μM AngII
DEFB1 = assay: QRT-PCR of DEFB1 (hBD-1) expression; settings: for decrease in DEFB1 expression relative to untreated hPrEC cells: 10 μM AngII
Experimental: Briefly, total RNA was isolated using the SV Total RNA Isolation System (Promega, Madison, Wis.) from approximately 1×10^6 cells harvested by trypsinizing. Cells were lysed and total RNA was isolated by centrifugation through spin columns. For cells collected by LCM, total RNA was isolated using the PicoPure RNA Isolation Kit (Arcturus Biosciences, Mt. View, Calif.) following the manufacturer's protocol. Total RNA (0.5 μg per reaction) from both sources was reverse transcribed into cDNA utilizing random primers (Promega). AMV Reverse Transcriptase II enzyme (500 units per reaction; Promega) was used for first strand synthesis and Tfl DNA Polymerase for second strand synthesis (500 units per reaction; Promega) as per the manufacturer's protocol. In each case, 50 pg of cDNA was used per ensuing PCR reaction. Two-step QRT-PCR was performed on cDNA generated using the MultiScribe Reverse Transcripatase from the TaqMan Reverse Transcription System and the SYBR® Green PCR Master Mix (Applied Biosystems).
Forty cycles of PCR were performed under standard conditions using an annealing temperature of 56° C. In addition, β-actin (Table 2) was amplified as a housekeeping gene to normalize the initial content of total cDNA. […]
Quantitative real-time RT-PCR was performed as described in Example 1 to verify changes in gene expression following PAX2 knockdown in PC3 and DU145 prostate cancer cell lines and the hPrEC normal prostate epithelial cells. […] Quantification was determined by the cycle number where exponential amplification began (threshold value) and averaged from the values obtained from the triplicate repeats. […] Relative expression was calculated as the ratio between each genes and GAPDH. […]
QRT-PCR was performed as previously described (Gibson et al., 2007). […] Gene expression in benign prostate tissue samples was calculated as the expression ratio compared to β-actin. Levels of hBD-1 expression in malignant prostate tissue, hPREC prostate primary culture, and prostate cancer cell lines before and after induction were calculated relative to the average level of hBD-1 expression in hPrEC cells. […]

[1] = DU145, U0126 25 μM, PD98059 20 μM

NC(=O)c1ncn([C@@H]2O[C@H](CO)[C@@H](O)[C@H]2O)c1N [AICAR, 5-Aminoimidazole-4-carboxamide-1-β-4-ribofuranoside]
PAX2 protein levels (PAX2 protein): suppression of PAX2 expression; also recorded: suppress PAX2 protein levels
phospho-STAT3 protein levels (phospho-STAT3): suppressed; also recorded: suppress phospho-STAT3 protein levels
phospho-PAX2 protein levels (phospho-PAX2): suppression; also recorded: suppress phospho-PAX2 protein expression levels

CCCCc1nc(Cl)c(CO)n1Cc1ccc(-c2ccccc2-c2nn[nH]n2)cc1 [Los, Losartan]
ERK protein levels (ERK): no effect
PAX2 protein levels (PAX2 protein): significant reduction of PAX2 expression
PAX2 protein levels (PAX2 protein; listed as Losartan): suppress PAX2 protein levels
phospho-STAT3 protein levels (phospho-STAT3): reduced phospho-STAT3 protein levels; also recorded: suppress phospho-STAT3 protein levels
phospho-JNK protein levels (phospho-JNK): did not decrease; also recorded: failed to decrease phospho-JNK protein levels
proliferation rate decreased by (DU145; Los): 50%
effect of AngII on proliferation (DU145; pre-treating with Los for 30 min): suppressed the effect of AngII on proliferation
phospho-PAX2 protein levels (phospho-PAX2): significant decrease or suppression; also recorded: suppress phospho-PAX2 protein expression levels
phospho-ERK protein level (phospho-ERK 1/2): reduced the amount of phospho-ERK
phospho-ERK protein level (phospho-ERK 1/2; listed as Losartan): suppresses phospho-ERK 1/2
PAX2 expression reduced by, compared to untreated control (PAX2 expression; DU145, 48 hours): 37%
PAX2 expression reduced by, compared to untreated control (PAX2 expression; DU145, 72 hours): 50%
effect of AngII on PAX2 expression (PAX2 expression; DU145, Los (FIG. 21 legend)): blocks the effect of Angiotensin II

COc1cccc(-c2cc(=O)c3ccccc3o2)c1N [PD98059]
PAX2 protein levels (PAX2 protein): suppress PAX2 protein levels
phospho-STAT3 protein levels (phospho-STAT3): reduced phospho-STAT3 protein levels; also recorded: suppress phospho-STAT3 protein levels
phospho-PAX2 protein levels (phospho-PAX2): significant decrease or suppression; also recorded: suppress phospho-PAX2 protein expression levels
PAX2 expression (PAX2 expression; [1]): decreased PAX2

Cc1cc(Cn2cnc3c2C[C@@H](C(=O)O)N(C(=O)C(c2ccccc2)c2ccccc2)C3)ccc1N(C)C [PD123319]
PAX2 expression, fold increase (PAX2 expression; DU145, 48 hours): 7 fold
PAX2 expression, fold increase (PAX2 expression; DU145, 96 hours): 8 fold

N#CC(=C(/N)Sc1ccccc1N)/C(C#N)=C(\N)Sc1ccccc1N [U0126]
PAX2 protein levels (PAX2 protein): suppress PAX2 protein levels
phospho-STAT3 protein levels (phospho-STAT3): reduced phospho-STAT3 protein levels; also recorded: suppress phospho-STAT3 protein levels
phospho-JNK protein levels (phospho-JNK): did not decrease; also recorded: failed to decrease phospho-JNK protein levels
phospho-PAX2 protein levels (phospho-PAX2): significant decrease or suppression; also recorded: suppress phospho-PAX2 protein expression levels
PAX2 expression (PAX2 expression; [1]): significant reduction of PAX2 expression

Angiotensin II (DRVYIHPF; Angiotensin-2; UniProt P01019 25-32, looked up) [AngII]
decrease in DEFB1 expression relative to untreated hPrEC cells (DEFB1; 72 hours): 35%
decrease in DEFB1 expression relative to untreated hPrEC cells (DEFB1; 96 hours): 50%
DEFB1 expression levels (DEFB1; hPrEC, AngII (FIG. 25 legend)): decreases DEFB1 expression levels
proliferation rate (DU145; AngII, 72 h): two- to three-fold increase; also recorded: increases DU145 cell proliferation
PAX2 expression (PAX2 expression; DU145, AngII treatment over 30 min to 48 hour): progressively increased over time
increase in PAX2 expression relative to untreated hPrEC cells (PAX2 expression; hPrEC, 72 hours): 66%
increase in PAX2 expression relative to untreated hPrEC cells (PAX2 expression; hPrEC, 96 hours): 79%
PAX2 expression levels (PAX2 expression; hPrEC, AngII (FIG. 25 legend)): increases PAX2 expression levels
PAX2 expression as % of PAX2 levels in PC3 cells (PAX2 expression; hPrEC, AngII, 72 hours): 77%
PAX2 expression as % of PAX2 expression in PC3 cells (PAX2 expression; hPrEC, AngII, 96 hours): 89%
